For assay [1], the system named is tankyrase 1/2. The assay can be described thus: Cellular inhibition of tankyrase: increase of Axin2 level in DLD1 cells (Luminex). It is filed as cell-based. The note with it: DLD1 colon carcinoma cells, 24 hours, read-out: EC50 tankyrase 1/2 (cell assay). How it is done: Measurement of Cellular Inhibition of Tankyrase
Since Tankyrases have been described to modulate cellular level of Axin2 (Huang et al., 2009; Nature) the increase of Axin2 level is used as read-out for determination of cellular inhibition of Tankyrases in a Luminex based assay.
Cells of the colon carcinoma cell line DLD1 are plated in 96 well plates with 1.5×10^4 cells per well. Next day, cells are treated with a serial dilution of test compound in seven steps as triplicates with a final DMSO concentration of 0.3%. After 24 hours, cells are lysed in lysis buffer (20 mM Tris/HCl pH 8.0, 150 mM NaCl, 1% NP40, 10% Glycerol) and lysates are cleared by centrifugation through a 96 well filter plate (0.65 μm). Axin2 protein is isolated from cell lysates by incubation with a monoclonal anti-Axin2 antibody (R&D Systems #MAB6078) that is bound to fluorescent carboxybeads. Then, bound Axin2 is specifically detected with a polyclonal anti-Axin2 antibody (Cell Signaling #2151) and an appropriate PE-fluorescent secondary antibody. The amount of isolated Axin2 protein is determined in a Luminex^200 machine (Luminex Corporation) according to the manufacturer's instruction by counting 100 events per well. Inhibition of Tankyrase by test compounds results in higher levels of Axin2 which directly correlates with an increase of detectable fluorescence. As controls cells are treated with solvent alone (neutral control) and with a Tankyrase reference inhibitor IWR-2 (3E-06 M) which refers as control for maximum increase of Axin2. For analysis, the obtained data are normalized against the untreated solvent control and fitted for determination of the EC50 values using the Assay Explorer software (Accelrys).

Assay [2] addresses T1, PARP-1 (Homo sapiens, UniProt P09874).
T1 construct: purchased Enzo Life Sciences GmbH, Lorrach, Germany
The assay can be described thus: PARP-1 autoparsylation assay (HTRF). The assay is classed as biochemical. The note with it: His-tagged Parp-1, human recombinant. An excerpt:
Description of the PARP1 Assay
Biochemical Activity Testing of PARP-1: Autoparsylation Assay
The autoparsylation assay is run in two steps: the enzymatic reaction in which His-tagged Parp-1 transfers biotinylated ADP-ribose/ADP-ribose to itself from biotinylated NAD/NAD as co-substrate and the detection reaction where a time resolved FRET between cryptate labelled anti-His antibody bound to the His tag of the enzyme and Xlent® labelled-streptavidin bound the biotin-parsylation residue is analysed. The autoparsylation activity is detectable directly via the increase in HTRF signal.
The autoparsylation assay is performed as 384-well HTRF® (Cisbio, Codolet, France) assay format in Greiner low volume nb 384-well microtiter plates. 35 nM His-tagged Parp-1 (human, recombinant, Enzo Life Sciences GmbH, Lorrach, Germany) and a mixture of 125 nM bio-NAD (Biolog, Life science Inst., Bremen, Germany) and 800 nM NAD as co-substrate are incubated in a total volume of 6 μl (100 mM Tris/HCl, 4 mM Mg-chloride, 0.01% IGEPAL® CA630, 1 mM DTT , 0.5% DMSO, pH 8, 13 ng/μl activated DNA (BPS Bioscience, San Diego, US)) in the absence or presence of the test compound (10 dilution concentrations) for 150 min at 23° C. The reaction is stopped by the addition of 4 μl of the Stop/detection solution (70 nM SA-Xlent® (Cisbio, Codolet, France), 2.5 nM Anti-His-K® (Eu-labelled anti-His, Cisbio, Codolet, France) in 50 mM HEPES, 400 mM KF, 0.1% BSA, 20 mM EDTA, pH 7.0). After 1 h incubation at room temperature the HTRF iss measured with an Envision multimode reader (Perkin Elmer LAS Germany GmbH) at excitation wavelength 340 nm (laser mode) and emission wavelengths 615 nm and 665 nm. The ratio of the emission signals is determined. The full value used is the inhibitor-free reaction. The pharmacological zero value used is Olaparib (LClabs, Woburn, US) in a final concentration of 1 μM. The inhibitory values (IC50) are determined using either the program Symyx Assay Explorer® or Condosseo® from GeneData.

This passage reports EC50 and IC50 results from patent publication US9376433B2, “(AZA-)isoquinolinone derivatives” (MERCK PATENT GMBH, priority 2012, dated 2016).

A word on the IC50: it is the concentration that gives 50% inhibition.

T1 sequence (P09874 whole entry): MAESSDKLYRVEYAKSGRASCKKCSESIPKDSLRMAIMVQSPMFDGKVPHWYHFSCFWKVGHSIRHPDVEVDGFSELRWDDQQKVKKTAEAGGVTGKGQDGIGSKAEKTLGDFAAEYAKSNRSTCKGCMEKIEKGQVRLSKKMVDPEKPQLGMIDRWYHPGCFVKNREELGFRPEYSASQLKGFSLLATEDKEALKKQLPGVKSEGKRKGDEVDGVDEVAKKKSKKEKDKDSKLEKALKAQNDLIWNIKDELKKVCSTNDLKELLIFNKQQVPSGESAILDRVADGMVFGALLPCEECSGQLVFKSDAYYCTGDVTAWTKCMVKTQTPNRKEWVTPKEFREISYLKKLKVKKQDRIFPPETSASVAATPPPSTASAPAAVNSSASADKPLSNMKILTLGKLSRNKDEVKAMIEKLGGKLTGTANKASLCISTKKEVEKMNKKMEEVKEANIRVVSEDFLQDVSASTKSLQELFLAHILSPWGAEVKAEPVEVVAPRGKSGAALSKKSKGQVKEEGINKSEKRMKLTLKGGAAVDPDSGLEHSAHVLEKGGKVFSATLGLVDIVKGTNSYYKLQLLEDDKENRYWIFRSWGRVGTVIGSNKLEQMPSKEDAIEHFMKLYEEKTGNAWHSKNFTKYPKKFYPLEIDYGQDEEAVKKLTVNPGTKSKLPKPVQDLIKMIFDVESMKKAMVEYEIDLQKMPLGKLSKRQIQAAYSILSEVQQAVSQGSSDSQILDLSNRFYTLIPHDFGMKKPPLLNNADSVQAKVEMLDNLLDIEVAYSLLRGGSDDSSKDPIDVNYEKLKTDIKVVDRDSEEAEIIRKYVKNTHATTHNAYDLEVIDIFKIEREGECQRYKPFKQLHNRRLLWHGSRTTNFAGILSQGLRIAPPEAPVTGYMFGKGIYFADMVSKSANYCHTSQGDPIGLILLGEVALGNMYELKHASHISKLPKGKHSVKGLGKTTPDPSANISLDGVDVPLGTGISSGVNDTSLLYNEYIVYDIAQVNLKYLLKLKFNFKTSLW

As to `CC(C)(O)c1ccc(-c2cc3ccccc3c(=O)[nH]2)cc1` [Compound A3, 3-[4-(1-hydroxy-1-methyl-ethyl)-phenyl]-2H-isoquinolin-1-one], the EC50 in assay [1] was under 300 nM. For the same molecule, the half-inhibitory concentration (IC50) in assay [2] is 300 to 3000 nM.

With `CC(C)(O)c1ccc(-c2cc3cc(F)ccc3c(=O)[nH]2)cc1` [Compound A5, 6-fluoro-3-[4-(1-hydroxy-1-methyl-ethyl)-phenyl]-2H-isoquinolin-1-one], in assay [1], the EC50 fell in the range of 300 to 3000 nM. For the same molecule, in assay [2], the IC50 lay in the range of 300 to 3000 nM.

Take `CC(C)(O)c1ccc(-c2cc3ccc(F)cc3c(=O)[nH]2)cc1` [Compound A6, 7-fluoro-3-[4-(1-hydroxy-1-methyl-ethyl)-phenyl]-2H-isoquinolin-1-one]: the EC50 in assay [1] is under 300 nM. The IC50 in assay [2] fell in the range of 300 to 3000 nM.

Turning to `Cc1ccc(-c2cc3ccc(F)cc3c(=O)[nH]2)cc1` [Compound A9, 7-fluoro-3-p-tolyl-2H-isoquinolin-1-one], the EC50 in assay [1] was in the range of 300 to 3000 nM. Further, the IC50 in assay [2] was under 300 nM.

In the case of `Cc1ccc(-c2cc3cc(F)ccc3c(=O)[nH]2)cc1` [Compound A10, 6-fluoro-3-p-tolyl-2H-isoquinolin-1-one], in assay [1], the EC50 was in the range of 3000 to 50000 nM. Also, the IC50 in assay [2] fell in the range of 3000 to 50000 nM.

`Cc1ccc(-c2cc3cccc(F)c3c(=O)[nH]2)cc1` [Compound A11, 8-fluoro-3-p-tolyl-2H-isoquinolin-1-one]: the EC50 in assay [1] lay within 300 to 3000 nM. Also, in assay [2], the IC50 is 300 to 3000 nM.

As for `Cc1ccc(-c2cc3c(F)cccc3c(=O)[nH]2)cc1` [Compound A12, 5-fluoro-3-p-tolyl-2H-isoquinolin-1-one], the EC50 in assay [1] was 300 to 3000 nM. In assay [2], the IC50 was 300 to 3000 nM.

Regarding `Cn1cc(-c2ccc(-c3cc4ccncc4c(=O)[nH]3)cc2)cn1` [Compound A14, 3-[4-(1-Methyl-1H-pyrazol-4-yl)-phenyl]-2H-[2,7]naphthyridin-1-one], the EC50 in assay [1] is 300 to 3000 nM. Also, in assay [2], the IC50 was 3000 to 50000 nM.

On to `COC(C)(C)c1ccc(-c2cc3ccccc3c(=O)[nH]2)cc1` [Compound A15, 3-[4-(1-methoxy-1-methyl-ethyl)-phenyl]-2H-isoquinolin-1-one], for which, in assay [1], the EC50 was under 300 nM. Moreover, in assay [2], the IC50 is 300 to 3000 nM.

Regarding `CC(C)(OCCO)c1ccc(-c2cc3ccc(F)cc3c(=O)[nH]2)cc1` [Compound A16, 7-fluoro-3-{4-[1-(2-hydroxy-ethoxy)-1-methyl-ethyl]-phenyl}-2H-isoquinolin-1-one], the EC50 in assay [1] was under 300 nM. Also, the IC50 in assay [2] was 300 to 3000 nM.

Regarding `C=C(C)c1ccc(-c2cc3ccc(F)cc3c(=O)[nH]2)cc1` [Compound A17, 7-fluoro-3-(4-isopropenyl-phenyl)-2H-isoquinolin-1-one], the EC50 in assay [1] is under 300 nM. The half-maximal inhibitory concentration (IC50) in assay [2] fell in the range of 300 to 3000 nM.

As for `Cn1cc(-c2ccc(-c3cc4ccc(F)cc4c(=O)[nH]3)cc2)cn1` [Compound A18, 7-fluoro-3-[4-(1-methyl-1H-pyrazol-4-yl)-phenyl]-2H-isoquinolin-1-one], the EC50 in assay [1] was under 300 nM. Besides, the IC50 in assay [2] lay in the range of 300 to 3000 nM.

Take `CC(C)(N)c1ccc(-c2cc3ccc(F)cc3c(=O)[nH]2)cc1` [Compound A20, 3-[4-(1-amino-1-methyl-ethyl)phenyl]-7-fluoro-2H-isoquinolin-1-one]: the EC50 in assay [1] was 300 to 3000 nM. The IC50 in assay [2] is under 300 nM.

As for `CC(C)(O)c1ccc(-c2cc3cnccc3c(=O)[nH]2)cc1` [Compound A23, 3-[4-(1-hydroxy-1-methyl-ethyl)phenyl]-2H-2,6-naphthyridin-1-one], the EC50 in assay [1] was in the range of 300 to 3000 nM. In assay [2], the concentration for half-maximal inhibition (IC50) was 3000 to 50000 nM.

For `CC(C)(O)c1ccc(-c2cc3ccncc3c(=O)[nH]2)cc1` [Compound A24, 3-[4-(1-hydroxy-1-methyl-ethyl)phenyl]-2H-2,7-naphthyridin-1-one], in assay [1], the EC50 lay in the range of 300 to 3000 nM. For the same molecule, in assay [2], the IC50 was in the range of 3000 to 50000 nM.

On to `CC(C)(O)c1ccc(-c2cc3cccc(F)c3c(=O)[nH]2)cc1` [Compound A27, 8-fluoro-3-[4-(1-hydroxy-1-methyl-ethyl)phenyl]-2H-isoquinolin-1-one], for which, in assay [1], the EC50 was under 300 nM. Further, the IC50 in assay [2] lay in the range of 300 to 3000 nM.

Turning to `CC(C)(O)c1ccc(-c2cc3c(F)cccc3c(=O)[nH]2)cc1` [Compound A28, 5-fluoro-3-[4-(1-hydroxy-1-methyl-ethyl)phenyl]-2H-isoquinolin-1-one], the EC50 in assay [1] is under 300 nM. In assay [2], the IC50 is 300 to 3000 nM.

For `Cc1ccc(-c2cc3c(C)cccc3c(=O)[nH]2)cc1` [Compound A29, 5-methyl-3-(p-tolyl)-2H-isoquinolin-1-one], the EC50 in assay [1] was 300 to 3000 nM. Besides, the IC50 in assay [2] was under 300 nM.

In the case of `CC(C)(O)c1ccc(-c2cc3c(F)cc(F)cc3c(=O)[nH]2)cc1` [Compound A33, 5,7-difluoro-3-[4-(1-hydroxy-1-methyl-ethyl)-phenyl]-2H-isoquinolin-1-one], the EC50 in assay [1] was under 300 nM. Also, the IC50 in assay [2] is under 300 nM.
